These results are taken from article PMC7460285, “OctoPartenopin: Identification and Preliminary Characterization of a Novel Antimicrobial Peptide from the Suckers of Octopus vulgaris” (Marine Drugs, 2020).

Ends that are not written are not given here.

In assay [1] the test system is P. aeruginosa ATCC 9027. The experiment in a line: Agar diffusion assay (inhibition zone diameter). It is filed as cell-based, Pseudomonas aeruginosa. Details: key: R: Resistant; I: Intermediate; S: Sensitive. To be noted: 5 μg ampicillin, 5 μg gentamicin, 37 °C, 24 h. How it is done: (§1) Microorganisms used for this study were as follows: Staphylococcus aureus ATCC 6538, Pseudomonas aeruginosa ATCC 9027, and Candida albicans ATCC 90028. Microorganisms were routinely cultured in tryptic soy broth (TSB) supplemented with 0.1% glucose, at 37 °C, for 18 h prior to experiments, and corresponding cell concentration was adjusted to 10^6 CFU mL^−1 by optical density at 600 nm. Stock cultures were maintained in trypticase soy agar (TSA) and Sabouraud dextrose agar containing glycerol at −80 °C.
(§2) For antimicrobial testing, the agar disc diffusion method was used and the antimicrobial susceptibility was detected by analyzing the inhibition zones, measured and compared according to the standards set by the CLSI [106], which classify the strains as sensitive (S), intermediate (I), or resistant (R). All tests were performed in duplicate, and the antimicrobial activity was expressed as the mean of inhibition diameters (mm, ±standard deviation, SD) produced by the extracts.
(§3) Microorganisms were cultivated overnight and a suspension containing 10^6 CFU mL^−1 was spread on plates containing TSA or Sabouraud agar. Holes of approximately 5 × 3 mm were made in the agar and were filled with 30 μL of the extract stock solution (1 mg/mL). After incubation at 37 °C for 24 h, inhibition zones were measured in millimeters and compared to the controls. […]

Assay [2] has as its system S. aureus ATCC 6538. Put plainly: Agar diffusion assay (inhibition zone diameter). It counts as cell-based, Staphylococcus aureus. Details: key: R: Resistant; I: Intermediate; S: Sensitive. To be noted: 5 μg ampicillin, 5 μg gentamicin, 37 °C, 24 h. How it is done: as §1, §2, §3
A general note: A growth-free zone around the sample is the usual read-out of agar diffusion tests.

Assay [3] deals with C. albicans ATCC 90028. Put plainly: Agar diffusion assay (inhibition zone diameter). It counts as cell-based, Candida albicans. Particulars: 1 μg amphotericin B, 37 °C, 24 h. Also noted: key: R: Resistant; I: Intermediate; S: Sensitive. Here is the method: as §1, §2, §3
Assay [4] deals with mature biofilms of S. aureus, P. aeruginosa, and C. albicans. The experiment in a line: Mature biofilm eradication assay, crystal violet. To be noted: preformed 24 h biofilm, peptide 10 to 80 μM for 24 h, 30 °C; for Dispersion (clearance) of mature biofilm biomass: strain and concentration not stated for the values (Figure 4). It counts as cell-based. Here is the method:
(§4) The microorganism’s ability to form biofilm was determined using the method previously described in our laboratory. Bacterial and fungal biofilm prevention and eradication assays were performed based on our published protocols. Synthetized peptides (P0–P4) were tested at sub-MIC concentrations ranging from 10 to 80 μM in triplicate in both assays. For the prevention of biofilm formation, diluted cultures of each strain were added to 96-well plates and incubated with peptides (at concentrations ranging from 10 to 80 μM) at 30 °C, for 24 h. For the eradication of mature biofilm, diluted cultures of C. albicans and two bacteria were added to 96-well plates and incubated at 30 °C. After 24 h, the planktonic cells and medium were aspirated from the wells and fresh medium was added to the well, followed by peptides at the same concentrations. Plates were incubated at 30 °C, for an additional 24 h. For both above mentioned assays, the planktonic cells and medium were aspirated at the end of the final incubation period, and wells were washed twice with PBS. The residual attached biofilms were fixed with 95% v/v ethanol per well and, after 20 min, plates were emptied and left to dry. Plates were stained for 15 min with 0.1% w/v crystal violet. Excess stain was then removed by rinsing the plate with PBS. The plates were allowed to dry, and the crystal violet-stained biofilm was solubilized with 200 μL of 30% v/v glacial acetic acid per well. The OD of each well was measured at 550 nm with a microplate reader. The same formula described above was used to quantify the biofilm biomass forming when the incubation was done with peptides or when remaining after incubation with peptides. The percentage of biofilm inhibition and eradication was determined by the formula: biofilm reduction % = OD control − OD sample/OD control × 100%.

Assay [5] has as its system P. aeruginosa ATCC 9027. The experiment in a line: Broth microdilution MIC determination. It counts as cell-based, Pseudomonas aeruginosa. To be noted: 80% inhibition of growth in liquid medium (TSB), 37 °C, 18 h, mean of three replicates ± SD. How it is done:
as §1, with “°C. The minimum inhibitory concentration (MIC) determination was conducted as described in our previous papers. Briefly, microbes were inoculated in TSB and incubated at 37 °C to the exponential phase. Then, the inoculum was diluted with fresh TSB to 10^6 CFU/mL, and 50 μL microbial dilutions were mixed with serial dilutions of fractions or peptides (50 μL) in 96-well microtiter plates.” for “°C.”

Assay [6] concerns C. albicans ATCC 90028. The experiment in a line: Broth microdilution MIC determination. It counts as cell-based, Candida albicans. Particulars: 80% inhibition of growth in liquid medium (TSB), 37 °C, 18 h, mean of three replicates ± SD. How it is done: as §1, with “°C. The minimum inhibitory concentration (MIC) determination was conducted as described in our previous papers. Briefly, microbes were inoculated in TSB and incubated at 37 °C to the exponential phase. Then, the inoculum was diluted with fresh TSB to 10^6 CFU/mL, and 50 μL microbial dilutions were mixed with serial dilutions of fractions or peptides (50 μL) in 96-well microtiter plates.” for “°C.”

The test system of assay [7] is S. aureus ATCC 6538. Put plainly: Broth microdilution MIC determination. It is filed as cell-based, Staphylococcus aureus. Particulars: 80% inhibition of growth in liquid medium (TSB), 37 °C, 18 h, mean of three replicates ± SD. Here is the method:
as §1, with “°C. The minimum inhibitory concentration (MIC) determination was conducted as described in our previous papers. Briefly, microbes were inoculated in TSB and incubated at 37 °C to the exponential phase. Then, the inoculum was diluted with fresh TSB to 10^6 CFU/mL, and 50 μL microbial dilutions were mixed with serial dilutions of fractions or peptides (50 μL) in 96-well microtiter plates.” for “°C.”
(Broth dilution looks for growth in wells or tubes with falling amounts of substance.)

A further assay concerns C. albicans biofilm. It counts as cell-based, Candida albicans. To be noted: 24 h. Here is the method:
as §4, with “For both above mentioned assays, the planktonic cells and medium were aspirated at the end of the final incubation period, and wells were washed twice with PBS. The residual attached biofilms were fixed with 95% v/v ethanol per well and, after 20 min, plates were emptied and left to dry. Plates were stained for 15 min with 0.1% w/v crystal violet. Excess stain was then removed by rinsing the plate with PBS. The plates were allowed to dry, and the crystal violet-stained biofilm was solubilized with 200 μL of 30% v/v glacial acetic acid per well.” left out

As to `CC1(C)S[C@@H]2[C@H](NC(=O)[C@H](N)c3ccccc3)C(=O)N2[C@H]1C(=O)O` [AMP, Ampicillin], the results for the “Susceptibility class to positive control (CLSI interpretative chart)” value (“Susceptibility class to positive control” for short) in the assay with P. aeruginosa ATCC 9027 [1] and in the assay on S. aureus ATCC 6538 [2] were “R” and “S”, respectively.
In the case of `C[C@@H]1[C@H](O)[C@@H](C)/C=C/C=C/C=C/C=C/C=C/C=C/C=C/[C@H](O[C@@H]2O[C@H](C)[C@@H](O)[C@H](N)[C@@H]2O)C[C@@H]2O[C@](O)(C[C@@H](O)C[C@@H](O)[C@H](O)CC[C@@H](O)C[C@@H](O)CC(=O)O[C@H]1C)C[C@H](O)[C@H]2C(=O)O` [AMPH-B, amphotericin B], the “Susceptibility class to positive control” value in the assay on C. albicans ATCC 90028 [3] is on record as “S”.
For `CNC(C)C1CCC(N)C(OC2C(N)CC(N)C(OC3OCC(C)(O)C(NC)C3O)C2O)O1` (stereo not shown) [G, Gentamicin], the “Susceptibility class to positive control” value in the assay on P. aeruginosa ATCC 9027 [1] and with S. aureus ATCC 6538 [2] was “S” each time.
Turning to AGTNK-NH2 [P0], the “Dispersion (clearance) of mature biofilm biomass” value (“Dispersion (clearance)” for short) in assay [4] is recorded as “about 70%”. For the same compound, the MIC80 synthetized peptides in the assay with P. aeruginosa ATCC 9027 [5] is recorded as 200 ± 3 µM; in the assay with C. albicans ATCC 90028 [6] it was 200 ± 3 µM; in the assay with S. aureus ATCC 6538 [7] it was 150 ± 2 µM.
Consider EGQGVISLQAGTNK-NH2 [P3], for which the “Dispersion (clearance)” value in assay [4] is given as ~80%. Moreover, the MIC80 synthetized peptides against P. aeruginosa ATCC 9027 [5] is on record as 50 ± 3 µM; with C. albicans ATCC 90028 [6] it was 100 ± 4 µM; against S. aureus ATCC 6538 [7] it was 80 ± 1 µM.
“GEGIIGLQAGTNKFASQIGMKIGAVRHIADIR-NH2 [P4]”: the MIC80 synthetized peptides against P. aeruginosa ATCC 9027 [5] is on record as 50 ± 2 µM; in the assay with C. albicans ATCC 90028 [6], 180 ± 5 µM; with S. aureus ATCC 6538 [7] it was 80 ± 5 µM.
On to QAGSNKGASQKGMS-NH2 [P2], for which, in the assay with C. albicans biofilm, the “Inhibition rate of biofilm formation” value was “about 40%”. Also, the “Dispersion (clearance)” value in assay [4] was ~90%. For the same compound, the MIC80 synthetized peptides with P. aeruginosa ATCC 9027 [5] is 50 ± 2 µM; against C. albicans ATCC 90028 [6] it was 100 ± 3 µM; against S. aureus ATCC 6538 [7] it was 50 ± 5 µM.
Consider QAGTNK-NH2 [P1], for which the “Antibiofilm (eradication) activity, in words” value in assay [4] is on record as “weakest antibiofilm activity”. The values for the MIC80 synthetized peptides against P. aeruginosa ATCC 9027 [5], in the assay on C. albicans ATCC 90028 [6] and in the assay on S. aureus ATCC 6538 [7] were 100 ± 5 µM, 200 ± 5 µM and 150 ± 3 µM, respectively.
